This passage reports IC50 results from the Kinase Knowledgebase extract (Sharma et al. 2016).

“And” between values parts separate entries of the source, which are not always exact repeats. Equal values may be shown once.

Sequence of PIK3CA (human) (P42336 whole entry, looked up): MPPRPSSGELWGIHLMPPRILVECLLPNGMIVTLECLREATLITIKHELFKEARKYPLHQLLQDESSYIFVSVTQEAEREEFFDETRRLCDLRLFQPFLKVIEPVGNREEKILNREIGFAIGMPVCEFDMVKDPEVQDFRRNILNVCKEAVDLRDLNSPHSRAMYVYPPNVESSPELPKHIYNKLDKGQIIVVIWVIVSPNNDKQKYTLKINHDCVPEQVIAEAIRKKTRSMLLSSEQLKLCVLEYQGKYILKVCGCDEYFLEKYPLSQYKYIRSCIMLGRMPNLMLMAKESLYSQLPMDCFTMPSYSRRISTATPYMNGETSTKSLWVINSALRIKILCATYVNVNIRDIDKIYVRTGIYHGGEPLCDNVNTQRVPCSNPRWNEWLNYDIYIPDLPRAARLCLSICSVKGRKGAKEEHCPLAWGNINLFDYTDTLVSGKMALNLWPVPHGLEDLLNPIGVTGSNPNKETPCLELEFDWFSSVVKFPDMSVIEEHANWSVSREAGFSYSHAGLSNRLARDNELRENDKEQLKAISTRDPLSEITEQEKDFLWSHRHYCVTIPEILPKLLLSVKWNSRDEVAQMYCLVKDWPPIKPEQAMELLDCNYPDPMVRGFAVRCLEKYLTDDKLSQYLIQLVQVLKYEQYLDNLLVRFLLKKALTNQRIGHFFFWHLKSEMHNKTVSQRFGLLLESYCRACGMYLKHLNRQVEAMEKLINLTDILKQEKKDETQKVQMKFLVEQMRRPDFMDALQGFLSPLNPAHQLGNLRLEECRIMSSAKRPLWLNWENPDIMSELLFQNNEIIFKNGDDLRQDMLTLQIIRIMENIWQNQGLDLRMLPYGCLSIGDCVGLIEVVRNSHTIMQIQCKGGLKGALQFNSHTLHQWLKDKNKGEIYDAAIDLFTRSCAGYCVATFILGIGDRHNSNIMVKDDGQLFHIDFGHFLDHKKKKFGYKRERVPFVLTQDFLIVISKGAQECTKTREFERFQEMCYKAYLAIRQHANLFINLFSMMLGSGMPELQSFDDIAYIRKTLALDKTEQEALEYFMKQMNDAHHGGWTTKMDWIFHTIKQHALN

The test addresses PIK3CA (human) (UniProt P42336). Kind of test: Inhibition of PIK3CA Kinase Activity.
The term IC50 denotes the concentration that gives 50% inhibition. The low end stands for greater potency, the high end for weaker potency. With `Cc1nc(-c2cn3c(n2)-c2cc(C(=O)N4CCN(C(C)(C)CO)CC4)c(F)cc2OCC3)n(C(C)C)n1`, the half-maximal inhibitory concentration (IC50) was determined as 172 nM. In turn, `Cc1nc(-c2cn3c(n2)-c2ccc(-c4ccnn4[C@@H]4CCCN(C(C)(C)CO)C4)cc2OCC3)n(C(C)C)n1` registered a half-inhibitory concentration (IC50) of 10.8 nM. The same measure for `Cc1nc(-c2cn3c(n2)-c2ccc(OC4(C)CCN(C(C)C)C4)cc2OCC3)n(C(C)C)n1` (configuration not stated): 9.19 nM; for `Cc1nc(-c2cn3c(n2)-c2cnc(N4CCCC4C4CCCCN4C)cc2OCC3)n(CC(F)(F)F)n1` (configuration not stated): 1.85 nM and 1.9 nM; for `Cc1nc(-c2cn3c(n2)-c2cc(C(C)N4CCN(C(C)(C)C)CC4)c(F)cc2OCC3)n(C(C)C)n1` (configuration not stated): 250 nM. The molecule `Cc1nc(-c2cn3c(n2)-c2cc(-c4cnn(C)c4C4CC(N(C)C)CCO4)c(F)cc2OCC3)n(C(C)C)n1` (configuration not stated) showed a half-inhibitory concentration (IC50) of 9.57 nM. This IC50 is about 26-fold lower than that of the molecule before.

Molecule `CC(C)n1nc(N)nc1-c1cn2c(n1)-c1ccc(-c3ccnn3C3CCN(C)CC3)cc1OCC2` gave a concentration for half-maximal inhibition (IC50) of 38.5 nM. Molecule `Cc1nc(-c2cn3c(n2)-c2cc([C@@H](C)N4CCN(C(C)(C)CO)CC4)ncc2OCC3)n(C(C)C)n1` yielded a 50% inhibitory concentration (IC50) of 219 nM. `Cc1nc(-c2cn3c(n2)-c2cc([C@H](C)N4CCN(C(C)(C)CO)CC4)c(F)cc2OCC3)n(C(C)C)n1` registered an IC50 of 422 nM.

`Cc1nc(-c2cn3c(n2)-c2ccc(-c4ccnn4C4CCCN(Cc5ccccc5)C4)cc2OCC3)n(C(C)C)n1` (configuration not stated) showed an IC50 of 186 nM. The molecule `Cc1nc(-c2cn3c(n2)-c2cc([C@H](C)N4CCN(C(C)(C)C)CC4)c(C)cc2OCC3)n(C(C)C)n1` had a concentration for half-maximal inhibition (IC50) of 24.1 nM. On to `Cc1nc(-c2cn3c(n2)-c2ccc(-c4cnn(C)c4[C@H]4CCCN(C(C)C)C4)cc2OCC3)n(C(C)C)n1`, for which the IC50 worked out at 20.7 nM. The same measure for `Cc1nc(-c2cn3c(n2)-c2ccc(N4CCCC4C4CCN(S(C)(=O)=O)CC4)cc2OCC3)n(C(C)C)n1` (configuration not stated): 14.6 nM. `Cc1nc(-c2cn3c(n2)-c2ccc(OC4CC(C)CN(C(C)C)C4)cc2OCC3)n(C(C)C)n1` (configuration not stated) had a half-inhibitory concentration (IC50) of 32.8 nM.

Molecule `CC(C)n1ncnc1-c1cn2c(n1)-c1cc([S+]([O-])C3CCN(C(C)(C)C)CC3)ccc1OCC2` (configuration not stated) showed a 50% inhibitory concentration (IC50) of 149 nM.

On to `Cc1nc(-c2cn3c(n2)-c2cc([C@@H](C)N4CCN(CC(C)(C)O)CC4)c(F)cc2OCC3)n(C(C)C)n1`, for which the IC50 came out at 182 nM. The figure for `Cc1nc(-c2cn3c(n2)-c2cc([C@@H](C)N4CCN(C(C)(C)C)CC4)ncc2OCC3)n(C(C)C)n1` is 80.4 nM. Molecule `Cc1nc(-c2cn3c(n2)-c2ccc(N4CCC4C4CCN(C(C)C)CC4)cc2OCC3)n(C(C)C)n1` (configuration not stated) showed a 50% inhibitory concentration (IC50) of 15.1 nM.

`CC(C)n1ncnc1-c1cn2c(n1)-c1cc(C(=O)N3CCN(C(C)(C)C)CC3)ccc1OCC2` showed an IC50 of 24.9 nM. `Cc1nc(-c2cn3c(n2)-c2ccc(N4CCC[C@H]4C4CCN(C(C)C)CC4)cc2OCC3)n(C(C)C)n1` showed an IC50 of 20.3 nM. This IC50 and that of the molecule before are within 1.5-fold of each other. The same measure for `Cc1nc(-c2cn3c(n2)-c2cc([C@H](C)N4CCN(C(C)(C)C)CC4)c(F)cc2OCC3)n(C(C)C)n1`: 247 nM. The same measure for `CC(C)n1ncnc1-c1cn2c(n1)-c1cc(CN3CCN(C(C)(C)C)CC3)ccc1OCC2`: 53.6 nM.

As to `COc1cc2c(cc1[C@H](C)N1CCN(C(C)(C)C)CC1)-c1nc(-c3nc(C)nn3C(C)C)cn1CCO2`, the IC50 was 62 nM and 90.9 nM. The same measure for `Cc1nc(-c2cn3c(n2)-c2ccc(-c4cnn(C)c4C4CCCN(C(C)C)C4)cc2OCC3)n(C(C)C)n1` (configuration not stated): 57.7 nM; for `CC(C)n1ncnc1-c1cn2c(n1)-c1cnc(N3CCCC3C3CCN(C)CC3)cc1OCC2` (configuration not stated): 13.9 nM; for `Cc1nc(-c2cn3c(n2)-c2cc(-c4ccnn4[C@@H]4CCCN(C(C)(C)CO)C4)c(F)cc2OCC3)n(C(C)C)n1`: 47.4 nM and 19.3 nM. The same measure for `Cc1nc(-c2cn3c(n2)-c2cc(-c4cnn(C)c4C4CCCN(C(C)C)C4)c(F)cc2OCC3)n(C(C)C)n1` (configuration not stated): 20 nM and 105 nM. Molecule `CC(C)n1ncnc1-c1cn2c(n1)-c1cnc(N3CCCC3CN3CCCC3)cc1OCC2` (configuration not stated) returned an IC50 of 12.9 nM. The figure for `Cc1nc(-c2cn3c(n2)-c2ccc(-c4ncnn4C4CCN(C(C)(C)C)CC4)cc2OCC3)n(C(C)C)n1` is 837 nM. `Cc1nc(-c2cn3c(n2)-c2ccc(-c4cnn(C)c4[C@@H]4CCCN(C(C)C)C4)cc2OCC3)n(C(C)C)n1`: the IC50 came to 58.8 nM. With `Cc1nc(-c2cn3c(n2)-c2ccc(-c4ccnn4C4CC(C)N(C)C(C)C4)cc2OCC3)n(C(C)C)n1` (configuration not stated), the IC50 was 100 nM.

`Cc1nc(-c2cn3c(n2)-c2ccc(-c4ccnn4C4CCCN(C5(C)COC5)C4)cc2OCC3)n(C(C)C)n1` (configuration not stated): the IC50 came out at 44.3 nM. The same measure for `Cc1cc2c(cc1-c1ccnn1C1CCN(C)CC1)OCCn1cc(-c3ncnn3C(C)C)nc1-2`: 173 nM; for `Cc1nc(-c2cn3c(n2)-c2cc(C(C)N4CCN(C)CC4)c(F)cc2OCC3)n(C(C)C)n1` (configuration not stated): 49.1 nM. The figure for `Cc1nc(-c2cn3c(n2)-c2ccc(OC4(CC5CC5)CNC4)cc2OCC3)n(C(C)C)n1` is 69.3 nM; for `Cc1nc(-c2cn3c(n2)-c2cc([C@@H](C)N4CCN(C(C)C)CC4)c(F)cc2OCC3)n(C(C)C)n1` it is 169 nM.

For `Cc1nc(-c2cn3c(n2)-c2ccc(N4CCC4[C@@H]4CCCN(C(C)C)C4)cc2OCC3)n(C(C)C)n1` (some centres not stated), the concentration for half-maximal inhibition (IC50) turned out to be 3.41 nM.
